Literature values as cited in US20070250270A1, “Cellular predictive models for toxicities” (Cytokinetics, Inc., priority 2006, published 2007).
Starred links: 1 amine or outer side, 2 acyl side, 3 side chain; linkers in the order of their positions; H or OH if unused. Positions of bridges follow the written chain, without caps; N, C: chain ends. Non-standard residues stand in square brackets, D forms with d. Residues, ends and D or L forms follow the SMILES beside them. Trp(2-yl) = O=C([C@H](Cc1c([*:3])[nH]c2ccccc12)N[*:1])[*:2]; Leu(4R-OH,5-OH) = C[C@](O)(CO)C[C@H](N)C(=O)O; cisHyp = O=C(O)[C@@H]1C[C@H](O)CN1

Key:
[1] = system: bile flow; settings: rats
[2] = system: filamentous F actin

SMILES | effect on bile flow, resulting in cholestatic injury [1] | effect on filamentous F actin around canaliculi and tight junctions [2]
C=C1[C@@H](C)[C@H]2[C@H](Cc3ccccc3)NC(=O)[C@]23OC(=O)/C=C/[C@H](O)CCC[C@@H](C)C/C=C/[C@H]3[C@@H]1O [cytochalasin B] | prompt arrest of bile flow | 
C[C@@H]1NC(=O)[C@H](C[C@@](C)(O)CO)NC(=O)[C@@H]2Cc3c([nH]c4ccccc34)SC[C@H](NC(=O)[C@@H]([C@H](C)O)NC1=O)C(=O)N1C[C@@H](O)C[C@H]1C(=O)N[C@@H](C)C(=O)N2 [phalloidin] (cyclo(A[dT]C[cisHyp]A[Trp(2-yl)][Leu(4R-OH,5-OH)]); thioether 3-6) |  | increase in filamentous F actin around canaliculi and tight junctions
